The values below come from patent US20230024108A1, “ADENOSINE A2A RECEPTOR ANTAGONISTS” (Teon Therapeutics, Inc., priority 2019, published 2023).

Bounds are passed on as bounds.

One assay addresses T1, human A2A AdoR (Homo sapiens, UniProt P29274).
T1 construct: purchased PerkinElmer RBHA2AM400UA
As to the kind of experiment: Adenosine receptor binding assay, A2A ([3H]-CGS-21680). Conditions: membranes of HEK-293 cells expressing human A2A AdoR; read-out: hA2A IC50. As for the experimental part:
(§1) Membranes prepared from CHO-K1 cells stably expressing Human AiAdoR (ES-010-M400UA), HEK-293 cells stably expressing human A2A AdoR (RBHA2AM400UA), HEK-293 cells stably expressing human A2B AdoR (ES-013-M400UA) and CHO-K1 cells stably expressing Human A3 AdoR (ES-012-M400UA) were purchased from PerkinElmer (Waltham, Mass., USA) and stored at −80° C. until use. Binding assays are performed using the radioligands. The final concentrations are as follows: [3H]-DPCPX (PerkinElmer, NET974001MC) at 1 nM for A1AdoR; [^3H]-CGS-21680 (PerkinElmer, NET1021250UC) at 6 nM for A2AAdoR, [3H]-DPCPX (PerkinElmer, NET974001MC) at 8 nM for A2BAdoR; [^3H]-HEMADO (ARC, Cat: ART1456) at 1 nM for A3AdoR. Testing compounds are diluted with DMSO to make 8-point 4-fold serial dilution. Nonspecific binding (Low control: LC) and total binding (High control: HC) are determined in the presence or absence of saturated cold ligand. Specific binding is calculated by subtracting nonspecific binding from total binding. All assays are performed in a final volume of 200 μl containing 1 μl of the test compound in DMSO, 100 μl of membrane preparation, and 99 μl of the radioligand in assay buffer (A1AdoR: 25 mM HEPES pH 7.4, 5 mM MgCl2, 1 mM CaCl2), 100 mM NaCl; A2AAdoR: 50 mM Tris HCl pH 7.4, 10 mM MgCl2, 1 mM EDTA; A2BAdoR: 50 mM HEPES pH 7.0, 5 mM MgCl2, 1 mM EDTA; A3AdoR: 25 HEPES pH 7.4, 10 mM MgCl2, 1 mM CaCl2), 0.5% BSA). The incubation is performed at room temperature with shaking at 300 rpm for 1 hour for A1AdoR, A2BAdoR and A3AdoR and 2 hours for A2AAdoR. After the incubation, the assay mixture is filtered through 96 GF/C filter plates (Perkin Elmer #6005174) using Perkin Elmer Filtermate Harvester, and then washed four times with ice-cold washing buffer (A1AdoR: 25 mM HEPES pH 7.4, 5 mM MgCl2, 1 mM CaCl2), 100 mM NaCl; A2AAdoR: 50 mM Tris HCl pH 7.4, 154 mM NaCl; A2BAdoR: 50 mM HEPES pH 6.5, 5 mM MgCl2, 1 mM EDTA, 0.2% BSA; A3AdoR: 50 mM Tris HCl pH 7.4). The filters are dried for 1 hour at 50° C. and [^3H] trapped on filter counted for radioactivity in Perkin Elmer Microscint 20 cocktail (#6013329) using Perkin Elmer MicroBeta2 Reader. The results are expressed as a percent inhibition of the control radioligand specific binding calculated using the following equation: % Inhibition=(1−(Assay well-Average_LC)/(Average_HC−Average_LC))×100%. Data are analyzed and IC50 is calculated using GraphPad Prism 5 and the model “log(inhibitor) vs. response—Variable slope”. The binding affinity of the compounds is determined by using the Cheng and Prusoff equation Ki=IC50/(1+[radioligand]/Kd).

A further assay deals with T2, A1AdoR (Homo sapiens, UniProt P30542).
T2 construct: purchased PerkinElmer ES-010-M400UA
T2 sequence (P30542 1-326): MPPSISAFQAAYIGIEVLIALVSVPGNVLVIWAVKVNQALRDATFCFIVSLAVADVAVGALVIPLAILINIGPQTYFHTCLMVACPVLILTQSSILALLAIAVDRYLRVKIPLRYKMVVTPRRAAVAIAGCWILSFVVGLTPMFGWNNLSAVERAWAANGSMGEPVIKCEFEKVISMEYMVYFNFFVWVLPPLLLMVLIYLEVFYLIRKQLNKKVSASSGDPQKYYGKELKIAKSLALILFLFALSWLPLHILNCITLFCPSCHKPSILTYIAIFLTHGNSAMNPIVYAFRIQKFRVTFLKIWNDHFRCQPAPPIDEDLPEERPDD
As to the kind of experiment: Adenosine receptor binding assay, A1 ([3H]-DPCPX). The note with it: ratio A1 vs A2A binding. The method, then: as §1

Broadly, the IC50 is the concentration needed to halve the response being measured.

T1 sequence (P29274 whole entry): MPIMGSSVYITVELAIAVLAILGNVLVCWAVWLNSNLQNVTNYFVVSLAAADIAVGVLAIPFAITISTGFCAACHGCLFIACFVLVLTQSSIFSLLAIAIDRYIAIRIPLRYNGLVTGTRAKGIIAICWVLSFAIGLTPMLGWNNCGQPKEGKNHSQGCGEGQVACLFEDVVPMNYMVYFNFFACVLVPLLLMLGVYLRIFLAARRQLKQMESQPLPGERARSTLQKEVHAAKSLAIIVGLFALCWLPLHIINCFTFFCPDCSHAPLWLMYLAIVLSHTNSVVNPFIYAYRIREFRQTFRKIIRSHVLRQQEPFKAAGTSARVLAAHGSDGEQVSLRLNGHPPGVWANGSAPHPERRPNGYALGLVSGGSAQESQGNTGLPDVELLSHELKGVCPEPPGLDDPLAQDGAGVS

Take `Cc1c(C(N)=O)n(CCN2CCN(c3ncccn3)CC2)c2nc(N)n3nc(-c4ccccn4)nc3c12` [5-amino-9-methyl-2-(pyridin-2-yl)-7-(2-(4-(pyrimidin-2-yl)piperazin-1-yl)ethyl)-7H-pyrrolo[3,2-e][1,2,4]triazolo[1,5-c]pyrimidine-8-carboxamide]: at human A2A AdoR, the IC50 was not above 20 nM. Also, the “A1/A2A Selectivity” value on A1AdoR was “b (greater than 100 but less than or equal to 1000)”.

For the molecule `Cc1c(C(=O)O)n(CCN2CCN(c3ccc(F)cc3F)CC2)c2nc(N)n3nc(-c4ccccn4)nc3c12` [5-amino-7-(2-(4-(2,4-difluorophenyl)piperazin-1-yl)ethyl)-9-methyl-2-(pyridin-2-yl)-7H-pyrrolo[3,2-e][1,2,4]triazolo[1,5-c]pyrimidine-8-carboxylic acid], the IC50 at human A2A AdoR was not above 20 nM. Further, the “A1/A2A Selectivity” value at A1AdoR is given as “b (greater than 100 but less than or equal to 1000)”.

On to `NC(=O)c1c(Cl)c2c(nc(N)n3nc(-c4ccccn4)nc23)n1CCN1CCN(c2cc(-c3ncco3)ccc2F)CC1` [5-amino-9-chloro-7-(2-(4-(2-fluoro-5-(oxazol-2-yl)phenyl)piperazin-1-yl)ethyl)-2-(pyridin-2-yl)-7H-pyrrolo[3,2-e][1,2,4]triazolo[1,5-c]pyrimidine-8-carboxamide], for which the IC50 at human A2A AdoR was not above 20 nM. For the same molecule, the “A1/A2A Selectivity” value on A1AdoR is listed as “a (greater than 1000)”.

As for `NC(=O)c1c(Cl)c2c(nc(N)n3nc(-c4ccccn4)nc23)n1CCN1CCN(c2ccc(OCC(=O)O)cc2)CC1` [2-(4-(4-(2-(5-amino-8-carbamoyl-9-chloro-2-(pyridin-2-yl)-7H-pyrrolo[3,2-e][1,2,4]triazolo[1,5-c]pyrimidin-7-yl)ethyl)piperazin-1-yl)phenoxy)acetic acid], the IC50 on human A2A AdoR was not above 20 nM. In addition, the “A1/A2A Selectivity” value at A1AdoR is “b (greater than 100 but less than or equal to 1000)”.

For `Nc1nc2c(ncn2CCN2CCc3ncc(C4COC4)cc3C2)c2nc(-c3ccccn3)nn12` [3-(2-(3-(oxetan-3-yl)-7,8-dihydro-1,6-naphthyridin-6(5H)-yl)ethyl)-8-(pyridin-2-yl)-3H-[1,2,4]triazolo[5,1-i]purin-5-amine], the IC50 at human A2A AdoR lay in the range of 20 to 100 nM. On A1AdoR, the “A1/A2A Selectivity” value was “c (greater than 0 but less than or equal to 100)”.

For the molecule `COC(=O)c1c(Cl)c2c(nc(N)n3nc(-c4ccccn4)nc23)n1CCN1CCN(c2cc(-c3ncco3)ccc2F)CC1` [methyl 5-amino-9-chloro-7-(2-(4-(2-fluoro-5-(oxazol-2-yl)phenyl)piperazin-1-yl)ethyl)-2-(pyridin-2-yl)-7H-pyrrolo[3,2-e][1,2,4]triazolo[1,5-c]pyrimidine-8-carboxylate], the IC50 on human A2A AdoR is not above 20 nM. For the same molecule, the “A1/A2A Selectivity” value on A1AdoR is given as “a (greater than 1000)”.

Consider `Nc1nc2c(ncn2CCN2CCN(c3cc(-c4ncco4)ccc3F)CC2)c2nc(C#CC3CC3)nn12` [8-(cyclopropylethynyl)-3-(2-(4-(2-fluoro-5-(oxazol-2-yl)phenyl)piperazin-1-yl)ethyl)-3H-[1,2,4]triazolo[5,1-i]purin-5-amine], for which the IC50 at human A2A AdoR is not above 20 nM. Besides, the “A1/A2A Selectivity” value at A1AdoR is “b (greater than 100 but less than or equal to 1000)”.

On to `Nc1nc2c(ncn2CCN2CCN(c3cc(-n4cccn4)ccc3F)CC2)c2nc(-c3ccccn3)nn12` [3-(2-(4-(2-fluoro-5-(1H-pyrazol-1-yl)phenyl)piperazin-1-yl)ethyl)-8-(pyridin-2-yl)-3H-[1,2,4]triazolo[5,1-i]purin-5-amine], for which, on human A2A AdoR, the IC50 was not above 20 nM. The “A1/A2A Selectivity” value at A1AdoR was “b (greater than 100 but less than or equal to 1000)”.

As for `Cc1c(C(N)=O)n(CCN2CCN(c3ccc(C#N)cc3F)CC2)c2nc(N)n3nc(-c4ccccn4)nc3c12` [5-amino-7-(2-(4-(4-cyano-2-fluorophenyl)piperazin-1-yl)ethyl)-9-methyl-2-(pyridin-2-yl)-7H-pyrrolo[3,2-e][1,2,4]triazolo[1,5-c]pyrimidine-8-carboxamide], the IC50 on human A2A AdoR is not above 20 nM. Moreover, the “A1/A2A Selectivity” value at A1AdoR was “b (greater than 100 but less than or equal to 1000)”.

In the case of `COC(=O)c1c(C)c2c(nc(N)n3nc(-c4ccccn4)nc23)n1CCN1CCCN(c2cc3c(C)noc3cc2F)CC1` [methyl 5-amino-7-(2-(4-(6-fluoro-3-methylbenzo[d]isoxazol-5-yl)-1,4-diazepan-1-yl)ethyl)-9-methyl-2-(pyridin-2-yl)-7H-pyrrolo[3,2-e][1,2,4]triazolo[1,5-c]pyrimidine-8-carboxylate], the IC50 at human A2A AdoR is not above 20 nM. Moreover, the “A1/A2A Selectivity” value at A1AdoR is recorded as “b (greater than 100 but less than or equal to 1000)”.

Consider `CC#Cc1nc2c3ncn(CCN4CCc5ncc(C6COC6)cc5C4)c3nc(N)n2n1`, for which the IC50 at human A2A AdoR is 20 to 100 nM. For the same molecule, the “A1/A2A Selectivity” value at A1AdoR is reported as “b (greater than 100 but less than or equal to 1000)”.

On to `Cc1c(C(N)=O)n(CCN2CCN(c3ccncc3)CC2)c2nc(N)n3nc(-c4ccccn4)nc3c12` [5-amino-9-methyl-2-(pyridin-2-yl)-7-(2-(4-(pyridin-4-yl)piperazin-1-yl)ethyl)-7H-pyrrolo[3,2-e][1,2,4]triazolo[1,5-c]pyrimidine-8-carboxamide], for which the IC50 at human A2A AdoR is not above 20 nM. The “A1/A2A Selectivity” value at A1AdoR was “c (greater than 0 but less than or equal to 100)”.

For the molecule `Cc1cnc2c(c1)CN(CCn1nc(Cl)c3c1nc(N)n1nc(-c4ccccn4)nc31)CC2` [9-chloro-7-(2-(3-methyl-7,8-dihydro-1,6-naphthyridin-6(5H)-yl)ethyl)-2-(pyridin-2-yl)-7H-pyrazolo[4,3-e][1,2,4]triazolo[1,5-c]pyrimidin-5-amine], the IC50 at human A2A AdoR is not above 20 nM. Further, on A1AdoR, the “A1/A2A Selectivity” value is recorded as “c (greater than 0 but less than or equal to 100)”.

`Cc1cc(N2CCN(CCn3c(C(=O)O)c(Cl)c4c3nc(N)n3nc(-c5ccccn5)nc43)CC2)c(F)cn1` [5-amino-9-chloro-7-(2-(4-(5-fluoro-2-methylpyridin-4-yl)piperazin-1-yl)ethyl)-2-(pyridin-2-yl)-7H-pyrrolo[3,2-e][1,2,4]triazolo[1,5-c]pyrimidine-8-carboxylic acid]: the concentration for half-maximal inhibition (IC50) at human A2A AdoR was not above 20 nM. The “A1/A2A Selectivity” value on A1AdoR is on record as “a (greater than 1000)”.

Take `CNC(=O)c1c(Cl)c2c(nc(N)n3nc(-c4ccccn4)nc23)n1CCN1CCN(c2cc(-c3ncco3)ccc2F)CC1`: the IC50 on human A2A AdoR was not above 20 nM. The “A1/A2A Selectivity” value on A1AdoR is listed as “a (greater than 1000)”.

Take `Nc1nc2c(ncn2CCN2CCc3ncc(-c4nccs4)cc3C2)c2nc(-c3ccccn3)nn12`: the IC50 at human A2A AdoR was not above 20 nM. Moreover, at A1AdoR, the “A1/A2A Selectivity” value is “c (greater than 0 but less than or equal to 100)”.

Consider `CC#Cc1nc2c3ncn(CCN4CCN(c5ccc(OC(C)(C)C(=O)O)cc5)CC4)c3nc(N)n2n1` [2-(4-(4-(2-(5-amino-8-(prop-1-yn-1-yl)-3H-[1,2,4]triazolo[5,1-i]purin-3-yl)ethyl)piperazin-1-yl)phenoxy)-2-methylpropanoic acid], for which the IC50 on human A2A AdoR was 20 to 100 nM. For the same molecule, at A1AdoR, the “A1/A2A Selectivity” value is “b (greater than 100 but less than or equal to 1000)”.

On to `Cc1c(C(=O)O)n(CCN2CCN(c3ccncc3)CC2)c2nc(N)n3nc(-c4ccccn4)nc3c12`, for which the IC50 at human A2A AdoR was in the range of 20 to 100 nM. Besides, at A1AdoR, the “A1/A2A Selectivity” value is given as “c (greater than 0 but less than or equal to 100)”.
